ChEMBL document CHEMBL5252509, “In depth analysis of kinase cross screening data to identify chemical starting points for inhibition of the Nek family of kinases” (Medchemcomm, 2018)

Tests used:
[1] = molecular target: T1, Serine/threonine-protein kinase Nek2 (Homo sapiens) (UniProt P51955); assay: Inhibition of NEK2 (unknown origin) at 1 uM relative to control
T1 sequence (whole entry): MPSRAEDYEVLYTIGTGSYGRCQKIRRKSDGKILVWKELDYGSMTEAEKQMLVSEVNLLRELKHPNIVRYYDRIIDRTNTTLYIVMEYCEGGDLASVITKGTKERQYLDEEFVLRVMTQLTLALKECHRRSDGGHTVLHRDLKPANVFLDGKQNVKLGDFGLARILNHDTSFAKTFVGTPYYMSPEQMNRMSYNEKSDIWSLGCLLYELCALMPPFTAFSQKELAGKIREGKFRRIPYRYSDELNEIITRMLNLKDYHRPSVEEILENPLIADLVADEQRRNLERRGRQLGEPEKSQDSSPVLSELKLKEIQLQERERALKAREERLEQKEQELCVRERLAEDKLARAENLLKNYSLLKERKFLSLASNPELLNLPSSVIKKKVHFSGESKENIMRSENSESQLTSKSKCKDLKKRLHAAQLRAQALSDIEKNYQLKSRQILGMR

[2] = molecular target: T2, Serine/threonine-protein kinase Nek3 (Homo sapiens) (UniProt P51956); assay: Inhibition of NEK3 (unknown origin) at 1 uM relative to control
T2 sequence (whole entry): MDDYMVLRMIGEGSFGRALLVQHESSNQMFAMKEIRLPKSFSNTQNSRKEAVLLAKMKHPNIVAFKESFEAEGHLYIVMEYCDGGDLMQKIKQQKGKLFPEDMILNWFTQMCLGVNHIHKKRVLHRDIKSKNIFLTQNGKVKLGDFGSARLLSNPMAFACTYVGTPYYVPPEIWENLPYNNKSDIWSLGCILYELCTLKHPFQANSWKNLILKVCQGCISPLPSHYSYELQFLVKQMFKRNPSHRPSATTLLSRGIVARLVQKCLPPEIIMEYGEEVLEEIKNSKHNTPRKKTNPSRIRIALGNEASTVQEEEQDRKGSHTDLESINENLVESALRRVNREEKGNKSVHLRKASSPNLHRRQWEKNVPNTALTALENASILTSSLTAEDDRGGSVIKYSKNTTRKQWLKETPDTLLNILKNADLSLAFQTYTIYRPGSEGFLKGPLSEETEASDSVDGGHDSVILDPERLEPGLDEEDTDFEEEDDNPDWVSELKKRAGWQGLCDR

[3] = molecular target: Serine/threonine-protein kinase Nek6 (Homo sapiens) (UniProt Q9HC98); assay: Inhibition of NEK6 (unknown origin) at 1 uM relative to control
Chain of Serine/threonine-protein kinase Nek6 (Homo sapiens) (Q9HC98 whole entry): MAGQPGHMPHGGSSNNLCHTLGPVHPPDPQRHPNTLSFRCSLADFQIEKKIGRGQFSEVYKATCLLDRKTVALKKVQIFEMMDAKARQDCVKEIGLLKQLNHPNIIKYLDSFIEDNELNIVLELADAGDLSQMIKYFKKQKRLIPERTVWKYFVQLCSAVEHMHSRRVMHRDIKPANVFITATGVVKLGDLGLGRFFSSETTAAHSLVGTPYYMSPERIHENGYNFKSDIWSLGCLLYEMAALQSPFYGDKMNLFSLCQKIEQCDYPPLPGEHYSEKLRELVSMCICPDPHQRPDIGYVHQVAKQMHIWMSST

[4] = molecular target: T3, Serine/threonine-protein kinase Nek10 (Homo sapiens) (UniProt Q6ZWH5); assay: Inhibition of NEK10 (unknown origin) at 1 uM relative to control
T3 sequence (whole entry): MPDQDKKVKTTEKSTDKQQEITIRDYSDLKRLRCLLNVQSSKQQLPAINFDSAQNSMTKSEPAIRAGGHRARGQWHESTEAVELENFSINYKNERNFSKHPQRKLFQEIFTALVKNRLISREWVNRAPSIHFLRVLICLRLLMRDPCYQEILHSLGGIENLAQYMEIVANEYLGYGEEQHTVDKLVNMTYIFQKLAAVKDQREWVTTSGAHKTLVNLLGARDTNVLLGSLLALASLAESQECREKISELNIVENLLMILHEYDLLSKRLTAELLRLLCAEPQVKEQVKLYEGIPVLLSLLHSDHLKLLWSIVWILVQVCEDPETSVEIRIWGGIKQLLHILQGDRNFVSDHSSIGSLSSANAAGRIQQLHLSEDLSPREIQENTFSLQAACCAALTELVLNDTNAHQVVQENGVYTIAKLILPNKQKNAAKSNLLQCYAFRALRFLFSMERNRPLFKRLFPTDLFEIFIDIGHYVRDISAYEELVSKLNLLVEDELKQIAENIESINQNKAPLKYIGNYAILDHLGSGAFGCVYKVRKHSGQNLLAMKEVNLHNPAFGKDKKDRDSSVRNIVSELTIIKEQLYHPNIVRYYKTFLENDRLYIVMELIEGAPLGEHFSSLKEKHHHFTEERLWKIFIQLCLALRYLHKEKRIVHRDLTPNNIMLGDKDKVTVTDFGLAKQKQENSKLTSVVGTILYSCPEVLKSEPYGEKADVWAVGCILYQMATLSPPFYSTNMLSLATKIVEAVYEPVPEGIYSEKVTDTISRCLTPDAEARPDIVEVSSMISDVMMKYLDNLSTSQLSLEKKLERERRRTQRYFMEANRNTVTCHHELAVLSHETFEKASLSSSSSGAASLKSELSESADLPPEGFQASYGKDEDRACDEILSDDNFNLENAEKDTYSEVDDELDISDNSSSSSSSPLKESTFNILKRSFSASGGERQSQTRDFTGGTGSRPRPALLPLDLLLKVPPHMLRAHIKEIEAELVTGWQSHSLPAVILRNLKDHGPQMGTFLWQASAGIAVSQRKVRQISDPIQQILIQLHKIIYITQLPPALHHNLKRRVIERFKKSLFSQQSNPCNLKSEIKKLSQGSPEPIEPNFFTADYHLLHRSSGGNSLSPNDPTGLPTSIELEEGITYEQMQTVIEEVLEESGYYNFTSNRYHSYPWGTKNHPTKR

SMILES	inhibition [1] [%]	inhibition [2] [%]	inhibition [3] [%]	inhibition [4] [%]
COc1cccc(C2=C(Nc3cccc(O)c3)C(=O)NC2=O)c1	0	19	0	67
Cc1ccc(CC(=O)N2CCc3cc(-c4cn(C)c5ncnc(N)c45)ccc32)cc1	96.9	7	19	0
COc1cccc(C2=C(Nc3ccc(Cl)c(C(=O)O)c3)C(=O)NC2=O)c1	0	7	0	73
CC(C)c1nc(-c2cccc(NS(=O)(=O)c3c(F)cccc3F)c2F)c(-c2ccnc(Nc3ccc(N4CCOCC4)nc3)n2)s1	0.9	99	0.9	100
CC(C)c1nc(-c2cccc(NS(=O)(=O)c3ccccc3)c2)c(-c2ccnc(Nc3ccc4c(c3)CN(C)CC4)n2)s1	66	73	100	100
c1ccc(-c2ccnc3[nH]ccc23)cc1	74	19	0	30
O=C1NC(=O)C(c2ccccc2Cl)=C1Nc1cccc(Cl)c1	10	56	1	51
CS(=O)(=O)Nc1ccc(-c2ccnc3[nH]ccc23)cc1	0	4	0	71
Cn1cc(-c2ccc3c(c2)CCN3C(=O)Cc2ccccc2Cl)c2c(N)ncnc21	79	0	3	0
COc1cc(Nc2ncc3c(C)nc(-c4cc5ccccc5[nH]4)n3n2)cc(OC)c1OC	70	89	70	0
Cn1cc(-c2ccc3c(c2)CCN3C(=O)Cc2cc(F)cc(C(F)(F)F)c2)c2c(N)ncnc21	18	0	6	6
CN(C)CCNS(=O)(=O)c1ccc(-c2ccnc3[nH]ccc23)cc1	0	0	1	17
Nc1nccc2scc(-c3ccc4c(c3)CCN4C(=O)Cc3ccccc3)c12	4	10	0	9
O=c1[nH]ccc2nc(N[C@@H]3CCCNC3)nc(Nc3ccc(S(=O)(=O)N4CCOCC4)cc3)c12	20	11	54	4.4
Nc1nccc2scc(-c3ccc4c(c3)CCN4C(=O)Cc3cc(F)ccc3F)c12	7	0	0	12
Nc1ncc(-c2cccnc2)c2scc(-c3ccc4c(c3)CCN4C(=O)Cc3ccccc3)c12	70	1	8	14
COc1cccc(CC(=O)N2CCc3cc(-c4cn(C)c5ncnc(N)c45)ccc32)c1	74	4	18	7
Cn1cc(-c2cnc(N)c3c(-c4ccc5c(c4)CCN5C(=O)Cc4ccccc4)csc23)cn1	28	1	0	22
CC(C)Oc1ccc2c(-c3ccnc(Nc4ccc(N5CCN(C)CC5)cc4)n3)cnn2n1	6.7	1.5	6.3	2.4
COc1ccc(C2=C(Nc3cccc(C(=O)O)c3)C(=O)NC2=O)cc1	10	31	13	2
Nc1ncc(-c2cn[nH]c2)c2scc(-c3ccc4c(c3)CCN4C(=O)Cc3ccccc3)c12	85	0	3	22
Cc1ccccc1CC(=O)N1CCc2cc(-c3cn(C)c4ncnc(N)c34)ccc21	97	0	0	0
COc1ccc(Nc2ncc(C#N)c(Nc3ccccc3C(N)=O)n2)cc1N1CCN(C)CC1	0.4	6.5	0.1	5.9
O=S(=O)(c1ccc(-c2ccnc3[nH]ccc23)cc1)N1CCCC1	16	16	0	15
NCCNS(=O)(=O)c1ccc(-c2ccnc3[nH]ccc23)cc1	0	14	4	69
COc1cccc(C2=C(Nc3cccc(Cl)c3)C(=O)NC2=O)c1	13	5	0	73
Cn1cc(-c2ccc3c(c2)CCN3C(=O)Cc2cccc(F)c2)c2c(N)ncnc21	73	11	0	22
Cn1cc(-c2ccc3c(c2)CCN3C(=O)Cc2cccc(C(F)(F)F)c2)c2c(N)ncnc21	15	0	0	18
Cn1cc(-c2ccc3c(c2)CCN3C(=O)Cc2cccc(Cl)c2)c2c(N)ncnc21	66	1	11	18
Cn1cc(-c2ccc3c(c2)CCN3C(=O)Cc2cc(F)cc(F)c2F)c2c(N)ncnc21	84	0	18	10
